Laboratory results: US5880111A, “Therapeutic derivations of diphosphonates” (priority 1995, dated 1999)
Converted amounts (≈) assume the structure as drawn. Like-named read-outs stand apart in the source and are kept apart here.

Legend:
Assay in all cases: MIC by broth-dilution method
Type in all cases: cell-based
[1] = tested on: Escherichia coli OKI 35034
Procedure: (§1) The antibacterial action of the product was evaluated against the following bacterial strains:
Escherichia coli OKI 35034
(§2) The sensitivity of the foregoing bacterial strains to both the product of Example 1 and norfloxacin was investigated by the broth-dilution method, and the minimal inhibitory concentration (MIC) values were assessed. MIC was defined as the lowest concentration ([…]) at which no bacterial growth could be observed visually.
(§3) The antibiotics were dissolved in dimethylsulfoxide (DMSO) and the solution was diluted by nine consecutive 2-fold dilutions in Nutrient-broth (NB) culture medium. Aliquots (0.2 ml) from each of these diluted solutions were added to test tubes containing 1.6 ml NB culture medium. The antibiotics were investigated in the concentration range of 100-0.38 μg/ml.
(§4) After overnight culture in NB at 37° C., the bacterial cultures were diluted so that their optical densities (OD) at 620 nm were between 0.08-0.1.
(§5) Incubation of the test tubes took place in a thermostat at 37° C. The test tubes were inspected visually after 24 and 48 hours. The margin of error of in vitro sensitivity determination was ± one dilution step. MIC values were read after 48 hours of incubation. The MIC value was the lowest antibiotic concentration at which no bacterial growth was observed, i.e. the culture medium remained clear. […]

[2] = tested on: Proteus vulgaris OKI 60002
Procedure: as §1
Proteus vulgaris OKI 60002
as §2, §3, §4, §5

[3] = tested on: Staphylococcus aureus ATCC 25923
Procedure: as §1
Gram positive bacteria: Staphylococcus aureus ATCC 25923
as §2, §3, §4, §5

[4] = tested on: Salmonella typhi OKI 10084; settings: Salmonella enterica
Procedure: as §1
Gram negative bacteria: Salmonella typhi OKI 10084
as §2, §3, §4, §5

[5] = tested on: Pseudomonas aeruginosa ATCC 27853
Procedure: as §1
Pseudomonas aeruginosa ATCC 27853
as §2, §3, §4, §5

[6] = tested on: Streptococcus faecalis OKI 80171; settings: Enterococcus faecalis, OKI80171, Nutrient-broth, 37° C., read after 48 hours, mean of three independent experiments
Procedure: as §1
Streptococcus faecalis OKI 80171
as §2, §3, §4, §5

[7] = tested on: Staphylococcus epidermidis OKI 110001
Procedure: as §1
Staphylococcus epidermidis OKI 110001
as §2, §3, §4, §5

Row | Structure (SMILES) | MIC ([1]; Escherichia coli, OKI35034, 48 h) | MIC ([2]; Proteus vulgaris, OKI60002, 48 h) | MIC ([3]; Staphylococcus aureus, ATCC25923, 48 h) | MIC ([4]; Salmonella typhi OKI 10084, Nutrient-broth, 37° C., read after 48 hours, mean of three independent experiments, read-out: MIC) | MIC ([5]; Pseudomonas aeruginosa, ATCC27853, 48 h) | MIC [6] | MIC ([7]; Staphylococcus epidermidis, OKI110001, 48 h) | MIC ([1]; OKI35034, Escherichia coli OKI 35034, Nutrient-broth, 37° C., read after 48 hours, mean of three independent experiments, read-out: MIC) | MIC ([2]; OKI60002, Proteus vulgaris OKI 60002, Nutrient-broth, 37° C., read after 48 hours, mean of three independent experiments, read-out: MIC) | MIC ([3]; ATCC25923, Staphylococcus aureus ATCC 25923, Nutrient-broth, 37° C., read after 48 hours, mean of three independent experiments, read-out: MIC) | MIC ([4]; TYPHI, 48 h) | MIC ([5]; ATCC27853, Pseudomonas aeruginosa ATCC 27853, Nutrient-broth, 37° C., read after 48 hours, mean of three independent experiments, read-out: MIC) | MIC ([7]; OKI110001, Staphylococcus epidermidis OKI 110001, Nutrient-broth, 37° C., read after 48 hours, only two experiments, read-out: MIC)
1 | CCOP(=O)(OCC)C(CN1CCN(c2cc3c(cc2F)c(=O)c(C(=O)O)cn3CC)CC1)P(=O)(OCC)OCC [Example 1, 6-Fluoro-1-ethyl-7-{4-[2,2-bis(diethoxyphosphono)-1-ethyl]-l-piperazyl}-4-oxo-1,4-dihydroquinoline-3-carboxylic acid] | 25 µg/mL (≈ 40.4 µM) | 3.12 µg/mL (≈ 5.04 µM) | 12.5 µg/mL (≈ 20.2 µM) | 25 µg/mL (≈ 40.4 µM) | 50 µg/mL (≈ 80.7 µM) | 12.5 µg/mL (≈ 20.2 µM) | 12.5 µg/mL (≈ 20.2 µM) | – | – | – | – | – | –
2 | CCn1cc(C(=O)O)c(=O)c2cc(F)c(N3CCNCC3)cc21 [NORFLOXACIN, norfloxacin] | – | – | – | – | – | 12.5 µg/mL (≈ 39.1 µM) | – | 6.25 µg/mL (≈ 19.6 µM) | 6.25 µg/mL (≈ 19.6 µM) | 6.25 µg/mL (≈ 19.6 µM) | 12.5 µg/mL (≈ 39.1 µM) | 25 µg/mL (≈ 78.3 µM) | 6.25 µg/mL (≈ 19.6 µM)
